Test system: PILRA G78 expressing HEK293 cells
Experiment: mTOR dependence of anti-PILRA antibody-induced pSTAT3 Y705
Assay type: cell-based, human
Conditions: 2 hours pre-incubation; AZD8055 3.125-50 nM, Torin 1 31.25-500 nM; then 100 nM anti-PILRA mAb 30 mins
Description: To assess if pSTAT3 Y705 induction is mTOR dependent, cells were dosed with mTOR inhibitors Torin 1 (31.25-500 nM) or AZD8055 (3.125-50 nM) for 2 hours before spiking in 100 nM anti-PILRA mAb or isotype control for 30 mins.

Structure (SMILES) | blocking of anti-PILRA antibody-induced pSTAT3 Y705 by mTOR inhibitor
COc1ccc(-c2ccc3c(N4CCOC[C@@H]4C)nc(N4CCOC[C@@H]4C)nc3n2)cc1CO [AZD8055] | partially blocked
CCC(=O)N1CCN(c2ccc(-n3c(=O)ccc4cnc5ccc(-c6cnc7ccccc7c6)cc5c43)cc2C(F)(F)F)CC1 [Torin 1] | partially blocked

From patent publication US20260109763A1, “ANTI-PILRA ANTIBODIES, USES THEREOF, AND RELATED METHODS AND REAGENTS” (DENALI THERAPEUTICS INC., priority 2021, published 2026)
